In data set [1] the test system is cervical cancer (HeLa) cells. Nature of the data set: MTT dose response cytotoxicity, HeLa. The data set is classed as cell-based. Conditions: Homo sapiens, 48 h. The method, then:
(§1) Cells were seeded as described in above. […] The medium was aspirated and replaced with 200 μL fresh medium containing the dilution of the respective test compound. The test sample were added to each well and the plates were incubated for a further 48 h at 37 °C under 5% CO2 atmosphere in a humidified incubator. After this incubation period, the medium was removed and then replaced with 100 μL fresh culture medium containing MTT at a final concentration of 0.5 mg/mL. The 96-well plates were returned to the incubator and incubated for an additional 3 h. The medium was removed and the MTT crystals were solubilized in 100 μL DMSO and the absorbance was measured at 560 nm using a Labsystems Multiwell Scanning spectrophotometer (Thermo Fischer Scientific, Edenvale, South Africa).
(§2) Quantification of live and dead cells for the screening assay was performed using the ImageXpress Micro XLS Widefield Microscope and acquired images analysed using the MetaXpress software and Multi-Wavelength Cell Scoring Application Module. Acquired data was transferred to an EXCEL spreadsheet and relative cell viability was determined using quadruplicate wells for each concentration. Untreated cells were considered to have 100% cell viability (i.e., the mean OD of the untreated wells = 100% viability). Cell viabilities in other test wells were calculated relative to the untreated control and expressed as a percentage. Dose response analysis was performed using the statistical software GraphPad Prism and IC50 values calculated from the concentration-response data using a mathematical Hill function.

Another data set deals with lung cancer (A549) cells. Kind of data set: MTT dose response cytotoxicity, A549. The data set is classed as cell-based. Conditions: Homo sapiens, 48 h. As to the method:
as §1, §2

Another data set deals with HeLa cancer cells. Kind of data set: Two-concentration cytotoxicity screen (Hoechst 33342/PI imaging), HeLa. Conditions: 10 μM and 100 μM, 48 h. The data set is classed as cell-based. As to the method: (§3) The HeLa and A549 cancer cells were initially exposed to two concentrations of each test compound (10 μM and 100 μM) for 48 h with a well-known chemotherapeutic drug, Melphalan, used as a reference standard at the same concentrations (Table 2 and Table 3). Acquisition was performed using the ImageXpress Micro XLS Widefield Microscope and the acquired images were analyzed using the MetaXpress software and Multi-Wavelength Cell Scoring Application Module (see Figure S2 in the Supplementary Information for cell viability percentages for each compound). The structure activity relationship (SAR) of these compounds has been evaluated with respect to the substitution patterns on the 2-phenyl ring, C-3 and C-7 positions.
(§4) The human cervical cancer cell line, HeLa, and lung cancer cell line, A549 were used for the screening assay. HeLa cells were grown and maintained in RPMI 1640 medium supplemented with 10% fetal bovine serum (FBS) and A549 cells were grown and maintained in EMEM supplemented with 10% FBS and 10% non-essential amino acids. In the case of screening experiments, the cells were seeded into 96 well microtiter plates at a density of 6000 cells/well to a total volume of 200 μL per well. The microtiter plates were incubated at 37 °C, 5% CO2, and 100% relative humidity for 24 h to allow for cell attachment. Each of the test compounds was first reconstituted in DMSO at a concentration of 40 mM and then stored at 4 °C prior to use and final dilution to working concentrations with culture complete medium on the day of treatment. Two hundred microliters aliquots of the diluted compound in fresh medium was used to treat cells after aspiration of seeding medium. Each of the cell lines was incubated for 48 h at 37 °C in a humidified incubator under 5% CO2 atmosphere. Treatment medium was aspirated from all wells and replaced with 100 μL of Hoechst 33342 nuclear dye (5 μg/mL) and incubated for 10 min at room temperature. Thereafter, cells were stained with propidium iodide (PI) at 100 μg/mL in order to enumerate the proportion of dead cells within the population. […]
as §2, with “Untreated cells were considered to have 100% cell viability (i.e., the mean OD of the untreated wells = 100% viability).” left out

The next data set has as its system A549 cancer cells. Kind of data set: Two-concentration cytotoxicity screen (Hoechst 33342/PI imaging), A549. As to conditions: 10 μM and 100 μM, 48 h. The data set is classed as cell-based. The method, then:
as §3, §4
as §2, with “Untreated cells were considered to have 100% cell viability (i.e., the mean OD of the untreated wells = 100% viability).” left out

In another data set the test system is A549 cells. Kind of data set: Caspase 8 and 3 activation (immunochemical), A549. The data set is classed as cell-based, human. As to conditions: 24 h exposure at IC50 values. As to the method: (§5) Several distinctive mechanisms of cancer cell death such as apoptosis, necrosis, autophagy and cornification have been identified, and these are characterized by differences in morphology and biochemical changes. A major biochemical feature of apoptosis is the activation of caspases, which plays a central role in the morphological changes associated with apoptosis. Caspase activation was determined using immunochemical methods and the antibodies against activated caspase 8 and caspase 3. […] Activated caspase 8 can be used as a convenient indicator of involvement of the extrinsic death receptor pathway of apoptosis. Executioner caspases including caspase 3 are, in turn, activated by the initiator caspases. This protein is either partially or totally responsible for the cleavage of many key proteins such as PARP, DNA protein kinases and retinoblastoma protein [25]. […] This was true for both activated caspase 8 and 3. A more distinct increase was evident with caspase 3 albeit less pronounced than that of 4c and the increase was expected as caspase 3 is activated by initiator caspase including caspase 8, which is a later event in apoptosis. […] Prolonged treatment of the cells with compounds 5e–h for 48 h or more, for example, would probably result in significant effects. We also evaluated compound 5g for potential to induce other key apoptotic biochemical features such as phosphatidylserine (PS) translocation, cell cycle arrest and mitochondrial membrane depolarization.
(§6) Compounds 4c and 5g were selected for mechanism studies and these test compounds were reconstituted in dimethyl sulphoxide (DMSO) to give a final concentration of 40 mM. Samples were stored at 4 °C until required. […]
(§7) Quantification of live and dead cells for the assay was performed using the ImageXpress Micro XLS Widefield Microscope and acquired images analysed using the MetaXpress software and Multi-Wavelength Cell Scoring Application Module and the Cell Cycle Module. Acquired data was transferred to an EXCEL spreadsheet and data was analysed and processed.

For another data set, the system named is HeLa cells. Kind of data set: Caspase 8 and 3 activation (immunochemical), HeLa. The data set is classed as cell-based, human. Conditions: 24 h exposure at IC50 values. As to the method:
as §5, §6, §7

The structures appear in SMILES notation. A value given as a limit tells only on which side of the number the result lay.

Usually melting point stands for the temperature, or range, at which the solid turns liquid. One may read the IC50 as the concentration that inhibits the measured activity by half. `CC(=O)c1cc(Br)cc2cc(-c3ccccc3)[nH]c12` [Compound 2a, 1-(5-Bromo-2-phenyl-1H-indol-7-yl)ethanone] had a melting point of 139 to 142 °C. The molecule also registered a half-inhibitory concentration (IC50) in data set [1] of over 200 µM. For the same molecule, in the data set with lung cancer (A549) cells, the half-inhibitory concentration (IC50) is over 200 µM.

In the case of `CC(=O)c1cc(Br)cc2cc(-c3ccc(F)cc3)[nH]c12` [Compound 2b, 1-[5-Bromo-2-(4-fluorophenyl)-1H-indol-7-yl]ethanone], the melting point was in the range of 171 to 173 °C. This molecule gave an IC50 in data set [1] of over 200 µM. Further, in the data set on lung cancer (A549) cells, the IC50 is over 200 µM.

In turn, `CC(=O)c1cc(Br)cc2cc(-c3cccc(Cl)c3)[nH]c12` [Compound 2c, 1-[5-Bromo-2-(3-chlorophenyl)-1H-indol-7-yl]ethanone] gave a melting point of 140 to 143 °C. The concentration for half-maximal inhibition (IC50) in data set [1] is over 200 µM. Further, in the data set with lung cancer (A549) cells, the IC50 was over 200 µM.

`COc1ccc(-c2cc3cc(Br)cc(C(C)=O)c3[nH]2)cc1` [Compound 2d, 1-[5-Bromo-2-(4-methoxyphenyl)-1H-indol-7-yl]ethanone] yielded a melting point of 140 to 142 °C. The same molecule returned an IC50 in data set [1] of over 200 µM. The same molecule gave an IC50 in the data set with lung cancer (A549) cells of over 200 µM.

Turning to `CC(=O)Nc1cc(Br)cc2cc(-c3ccccc3)[nH]c12` [Compound 4a, N-(5-Bromo-2-phenyl-1H-indol-7-yl)acetamide], the IC50 (in data set [1]; with lung cancer (A549) cells) was over 200 µM each time. Besides, the “Cytotoxicity (percentage live cells compared to untreated control)” value in the data set on HeLa cancer cells and in the data set on A549 cancer cells was “Lack of cytotoxicity” throughout.

With `CC(=O)Nc1cc(Br)cc2cc(-c3ccc(F)cc3)[nH]c12` [Compound 4b, N-[5-Bromo-2-(4-fluorophenyl)-1H-indol-7-yl]acetamide], the IC50 in data set [1] was 122.4 ± 1.02 µM; with lung cancer (A549) cells, 116.2 ± 0.78 µM. The “Cytotoxicity (percentage live cells compared to untreated control)” value in the data set on HeLa cancer cells and in the data set with A549 cancer cells was “modest cytotoxicity” each time.

Turning to `CC(=O)Nc1cc(Br)cc2cc(-c3cccc(Cl)c3)[nH]c12` [Compound 4c, N-(5-Bromo-2-(3-chlorophenyl)-1H-indol-7-yl)acetamide], the “Caspase 8 and 3 activation (% change in mean integrated fluorescence intensity of the untreated control)” value in the data set on A549 cells and with HeLa cells was “clear increases” in each case. In addition, the results for the IC50 (in data set [1]; in the data set on lung cancer (A549) cells) were 126.9 ± 1 µM and 154.6 ± 0.9 µM, respectively. The “Cytotoxicity (percentage live cells compared to untreated control)” value in the data set on HeLa cancer cells and with A549 cancer cells was “modest cytotoxicity” in each case.

On to `COc1ccc(-c2cc3cc(Br)cc(NC(C)=O)c3[nH]2)cc1` [Compound 4d, N-[5-Bromo-2-(4-methoxyphenyl)-1H-indol-7-yl]acetamide], for which the IC50 in data set [1] was 125 ± 0.88 µM; in the data set with lung cancer (A549) cells, 146.8 ± 1 µM. For the same molecule, the “Cytotoxicity (percentage live cells compared to untreated control)” value in the data set on HeLa cancer cells and in the data set with A549 cancer cells was “modest cytotoxicity” in each case.

The molecule `CC(=O)c1cc(Br)cc2c(C(=O)C(F)(F)F)c(-c3ccccc3)[nH]c12` [Compound 5a, 1-(7-Acetyl-5-bromo-2-phenyl-1H-indol-3-yl)-2,2,2-trifluoroethanone] yielded a melting point of 175 to 176 °C. Moreover, in data set [1], the half-inhibitory concentration (IC50) is over 200 µM. This molecule also showed a 50% inhibitory concentration (IC50) in the data set on lung cancer (A549) cells of over 200 µM.

Molecule `CC(=O)c1cc(Br)cc2c(C(=O)C(F)(F)F)c(-c3ccc(F)cc3)[nH]c12` [Compound 5b, 1-[7-Acetyl-5-bromo-2-(4-fluorophenyl)-1H-indol-3-yl]-2,2,2-trifluoroethanone] displayed a melting point of 168 to 171 °C. The molecule further came in with a half-inhibitory concentration (IC50) in data set [1] of over 200 µM. The molecule further gave a 50% inhibitory concentration (IC50) in the data set on lung cancer (A549) cells of over 200 µM.

`CC(=O)c1cc(Br)cc2c(C(=O)C(F)(F)F)c(-c3cccc(Cl)c3)[nH]c12` [Compound 5c, 1-[7-Acetyl-5-bromo-2-(3-chlorophenyl)-1H-indol-3-yl]-2,2,2-trifluoroethanone]: the melting point was in the range of 138 to 141 °C. In data set [1], this molecule displayed an IC50 of over 200 µM. In the data set on lung cancer (A549) cells, this molecule showed a concentration for half-maximal inhibition (IC50) of over 200 µM.

`COc1ccc(-c2[nH]c3c(C(C)=O)cc(Br)cc3c2C(=O)C(F)(F)F)cc1` [Compound 5d, 1-[7-Acetyl-5-bromo-2-(4-methoxyphenyl)-1H-indol-3-yl]-2,2,2-trifluoroethanone] showed a melting point of 170 to 173 °C. Moreover, the IC50 in data set [1] was over 200 µM. In addition, the concentration for half-maximal inhibition (IC50) with lung cancer (A549) cells is over 200 µM.

`CC(=O)Nc1cc(Br)cc2c(C(=O)C(F)(F)F)c(-c3ccccc3)[nH]c12` [Compound 5e, N-[5-Bromo-2-phenyl-3-trifluoroacetyl-1H-indol-7-yl]acetamide] registered a melting point of 141 to 144 °C. Also, in data set [1], the midpoint of inhibition, the IC50, lay at 12.9 ± 1.11 µM. This molecule also had a half-inhibitory concentration (IC50) with lung cancer (A549) cells of 9.94 ± 0.99 µM.

In the case of `CC(=O)Nc1cc(Br)cc2c(C(=O)C(F)(F)F)c(-c3ccc(F)cc3)[nH]c12` [Compound 5f, N-[5-Bromo-2-(4-fluorophenyl)-3-trifluoroacetyl-1H-indol-7-yl]acetamide], the melting point lay in the range of 195 to 197 °C. The molecule further gave an IC50 in data set [1] of 7.95 ± 0.9 µM. Moreover, the IC50 in the data set on lung cancer (A549) cells turned out to be 5.03 ± 0.71 µM.

Molecule `COc1ccc(-c2[nH]c3c(NC(C)=O)cc(Br)cc3c2C(=O)C(F)(F)F)cc1` [Compound 5h, N-[5-Bromo-2-(4-methoxyphenyl)-3-trifluoroacetyl-1H-indol-7-yl]acetamide] came in with a melting point of 179 to 182 °C. The molecule further came in with a half-inhibitory concentration (IC50) in data set [1] of 10.7 ± 1.03 µM. It took 3.26 ± 0.51 µM to reach half-maximal inhibition with lung cancer (A549) cells (IC50).

As for `N[C@@H](Cc1ccc(N(CCCl)CCCl)cc1)C(=O)O` [Melphalan, reference compound], the “Caspase 8 and 3 activation (% change in mean integrated fluorescence intensity of the untreated control)” value in the data set on A549 cells and in the data set on HeLa cells was “clear increases” throughout. The 50% inhibitory concentration (IC50) in data set [1] amounted to 37.16 ± 0.22 µM; in the data set with lung cancer (A549) cells, 30.7 ± 0.76 µM.

The values above are taken from paper PMC6027433, “Synthesis, Evaluation of Cytotoxicity and Molecular Docking Studies of the 7-Acetamido Substituted 2-Aryl-5-bromo-3-trifluoroacetylindoles as Potential Inhibitors of Tubulin Polymerization” (Pharmaceuticals, 2018).
